From patent US20260062387A1, “SALT-INDUCIBLE KINASE INHIBITOR COMPOUND AND PHARMACEUTICAL COMPOSITION INCLUDING THE SAME” (MITSUBISHI TANABE PHARMA CORPORATION, priority 2023, published 2026)

Experiments:
Assay type in all cases: biochemical
GST-tagged SIK1 = GST-tagged SIK1 (Homo sapiens (Human), UniProt P57059); test: SIK1 inhibition test (ADP-Glo Max Assay); settings: enzyme 20 nM, AMARA Peptide 200 μM, ATP 1 mM, 2 hours room temperature
How it was run: (§1)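 ADP formed was detected by luciferase luminescence after a 2 h room-temperature reaction with 1 mM ATP, 5 mM MgCl2 and AMARA peptide at 200 μM (SIK1, SIK2) or 100 μM (SIK3). Final GST-enzyme levels were 20 nM SIK1, 3 nM SIK2 and 100 nM SIK3. IC50 came from 16-point concentration-response data.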

GST-tagged SIK2 = GST-tagged SIK2 (Homo sapiens (Human), UniProt Q9H0K1); test: SIK2 inhibition test (ADP-Glo Max Assay); settings: enzyme 3 nM, AMARA Peptide 200 μM, ATP 1 mM, 2 hours room temperature
Chain of GST-tagged SIK2 (Q9H0K1 whole entry): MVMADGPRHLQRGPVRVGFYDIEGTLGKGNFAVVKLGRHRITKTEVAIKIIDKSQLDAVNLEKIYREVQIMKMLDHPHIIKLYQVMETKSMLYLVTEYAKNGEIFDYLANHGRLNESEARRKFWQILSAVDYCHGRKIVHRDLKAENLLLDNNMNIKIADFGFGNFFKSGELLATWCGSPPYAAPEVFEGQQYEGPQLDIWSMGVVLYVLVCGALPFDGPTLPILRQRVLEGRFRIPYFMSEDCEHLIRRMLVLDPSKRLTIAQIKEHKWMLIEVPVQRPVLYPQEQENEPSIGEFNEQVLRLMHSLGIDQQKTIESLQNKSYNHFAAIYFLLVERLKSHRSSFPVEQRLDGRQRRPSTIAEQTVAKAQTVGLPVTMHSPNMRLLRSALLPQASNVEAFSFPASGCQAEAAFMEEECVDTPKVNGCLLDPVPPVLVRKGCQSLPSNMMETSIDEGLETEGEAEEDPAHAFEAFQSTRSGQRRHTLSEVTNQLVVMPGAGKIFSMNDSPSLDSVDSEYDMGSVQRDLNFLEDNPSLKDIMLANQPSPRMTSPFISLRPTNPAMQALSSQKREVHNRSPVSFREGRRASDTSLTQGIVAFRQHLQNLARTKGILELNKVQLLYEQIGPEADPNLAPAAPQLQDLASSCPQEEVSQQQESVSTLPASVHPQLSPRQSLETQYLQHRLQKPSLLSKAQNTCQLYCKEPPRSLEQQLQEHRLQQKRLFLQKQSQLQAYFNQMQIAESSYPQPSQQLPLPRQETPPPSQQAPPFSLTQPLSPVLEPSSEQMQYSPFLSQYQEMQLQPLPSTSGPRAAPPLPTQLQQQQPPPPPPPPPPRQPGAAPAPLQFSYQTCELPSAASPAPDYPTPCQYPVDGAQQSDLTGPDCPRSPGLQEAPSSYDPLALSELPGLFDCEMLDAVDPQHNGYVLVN
How it was run: as §1

GST-tagged SIK3 = GST-tagged SIK3 (Homo sapiens (Human), UniProt Q9Y2K2); test: SIK3 inhibition test (ADP-Glo Max Assay); settings: enzyme 100 nM, AMARA Peptide 100 μM, ATP 1 mM, 2 hours room temperature
Chain of GST-tagged SIK3 (Q9Y2K2 whole entry): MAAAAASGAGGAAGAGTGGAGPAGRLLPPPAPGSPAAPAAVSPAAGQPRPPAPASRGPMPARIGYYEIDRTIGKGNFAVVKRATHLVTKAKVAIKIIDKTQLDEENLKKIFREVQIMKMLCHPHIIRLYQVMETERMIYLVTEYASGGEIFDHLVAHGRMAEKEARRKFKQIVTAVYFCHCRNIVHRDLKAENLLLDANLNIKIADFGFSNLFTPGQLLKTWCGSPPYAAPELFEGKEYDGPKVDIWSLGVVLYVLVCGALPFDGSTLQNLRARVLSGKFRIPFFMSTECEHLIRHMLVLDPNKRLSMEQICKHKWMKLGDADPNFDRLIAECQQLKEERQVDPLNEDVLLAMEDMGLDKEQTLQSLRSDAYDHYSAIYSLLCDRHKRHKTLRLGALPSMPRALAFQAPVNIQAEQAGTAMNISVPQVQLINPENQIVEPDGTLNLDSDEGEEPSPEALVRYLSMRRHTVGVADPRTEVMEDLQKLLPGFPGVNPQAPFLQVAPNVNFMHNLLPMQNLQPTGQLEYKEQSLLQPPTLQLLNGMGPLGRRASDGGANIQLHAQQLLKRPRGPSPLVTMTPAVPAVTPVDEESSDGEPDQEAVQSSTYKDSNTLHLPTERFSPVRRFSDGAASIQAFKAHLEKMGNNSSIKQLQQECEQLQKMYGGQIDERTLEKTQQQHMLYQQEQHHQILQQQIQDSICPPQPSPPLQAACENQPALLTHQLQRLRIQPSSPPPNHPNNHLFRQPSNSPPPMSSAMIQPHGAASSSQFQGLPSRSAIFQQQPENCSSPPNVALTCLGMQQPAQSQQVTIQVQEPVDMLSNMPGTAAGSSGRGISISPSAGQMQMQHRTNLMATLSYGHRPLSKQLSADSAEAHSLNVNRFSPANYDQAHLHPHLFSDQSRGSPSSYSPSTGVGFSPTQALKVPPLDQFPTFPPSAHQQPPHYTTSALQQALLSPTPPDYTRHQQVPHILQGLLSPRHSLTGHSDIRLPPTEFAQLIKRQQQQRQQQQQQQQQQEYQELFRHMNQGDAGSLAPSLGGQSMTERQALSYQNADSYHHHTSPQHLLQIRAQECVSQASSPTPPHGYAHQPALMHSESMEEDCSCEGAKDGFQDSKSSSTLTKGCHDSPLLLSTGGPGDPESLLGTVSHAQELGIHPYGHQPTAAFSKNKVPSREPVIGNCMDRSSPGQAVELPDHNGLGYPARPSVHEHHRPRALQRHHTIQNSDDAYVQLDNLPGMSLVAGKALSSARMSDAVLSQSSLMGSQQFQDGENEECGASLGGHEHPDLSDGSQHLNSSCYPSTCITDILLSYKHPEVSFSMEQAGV
How it was run: as §1

Chain of GST-tagged SIK1 (P57059 whole entry): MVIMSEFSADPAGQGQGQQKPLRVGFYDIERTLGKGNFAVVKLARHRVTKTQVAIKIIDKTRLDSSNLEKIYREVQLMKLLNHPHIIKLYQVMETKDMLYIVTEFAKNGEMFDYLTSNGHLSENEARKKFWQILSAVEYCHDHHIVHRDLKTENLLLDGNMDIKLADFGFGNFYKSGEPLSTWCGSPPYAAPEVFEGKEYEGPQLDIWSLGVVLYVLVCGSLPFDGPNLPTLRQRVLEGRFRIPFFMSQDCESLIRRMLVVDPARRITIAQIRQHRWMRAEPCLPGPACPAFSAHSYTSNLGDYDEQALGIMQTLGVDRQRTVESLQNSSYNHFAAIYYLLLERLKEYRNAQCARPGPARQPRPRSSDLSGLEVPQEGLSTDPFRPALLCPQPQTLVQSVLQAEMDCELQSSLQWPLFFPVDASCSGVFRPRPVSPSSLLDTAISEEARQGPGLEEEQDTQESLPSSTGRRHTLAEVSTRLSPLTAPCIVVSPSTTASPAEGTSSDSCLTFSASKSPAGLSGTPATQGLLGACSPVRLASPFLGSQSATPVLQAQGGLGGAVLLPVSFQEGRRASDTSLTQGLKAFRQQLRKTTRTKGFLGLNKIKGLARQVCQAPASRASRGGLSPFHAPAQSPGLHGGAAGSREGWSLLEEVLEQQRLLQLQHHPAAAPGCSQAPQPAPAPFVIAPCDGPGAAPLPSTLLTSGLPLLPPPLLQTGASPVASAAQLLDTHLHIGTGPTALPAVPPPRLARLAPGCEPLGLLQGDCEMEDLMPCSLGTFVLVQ

IC50 (GST-tagged SIK1) | IC50 (GST-tagged SIK2) | IC50 (GST-tagged SIK3) | SMILES
16.5 nM | 8.7 nM | 10.1 nM | COc1cc(-c2c3c(C#N)cc(-c4cnn(CC5CCO5)c4)cc3nn2C)cc(OC(F)F)c1C(=O)NCC1(F)CC1 (stereo not drawn) [Example 80, 4-[4-cyano-2-methyl-6-[1-(oxetan-2-ylmethyl)pyrazol-4-yl]indazol-3-yl]-2-(difluoromethoxy)-N-[(1-fluorocyclopropyl)methyl]-6-methoxybenzamide]
13.3 nM | 7.3 nM | 10.6 nM | COc1cc(-c2c3c(C#N)cc(-c4cnn(CC5CCS5(=O)=O)c4)cc3nn2C)cc(OC(F)F)c1C(=O)NCC1(F)CC1 (stereo not drawn) [Example 81, 4-[4-cyano-6-[1-[(1,1-dioxothietan-2-yl)methyl]pyrazol-4-yl]-2-methylindazol-3-yl]-2-(difluoromethoxy)-N-[(1-fluorocyclopropyl)methyl]-6-methoxybenzamide]
16 nM | 7.5 nM | 16.7 nM | COc1cc(-c2c3c(C#N)cc(-c4cnn(CC5CCCS5(=O)=O)c4)cc3nn2C)cc(OC(F)F)c1C(=O)NCC1(F)CC1 (stereo not drawn) [Example 82, 4-[4-cyano-6-[1-[(1,1-dioxothiolan-2-yl)methyl]pyrazol-4-yl]-2-methylindazol-3-yl]-2-(difluoromethoxy)-N-[(1-fluorocyclopropyl)methyl]-6-methoxybenzamide]
10.5 nM | 8.1 nM | 10.2 nM | COc1cc(-c2c3c(C#N)cc(-c4cnn(CC5(O)CC5)c4)cc3nn2C)cc(OC(F)F)c1C(=O)NCC1(F)CC1 [Example 83, 4-[4-cyano-6-[1-[(1-hydroxycyclopropyl)methyl]pyrazol-4-yl]-2-methylindazol-3-yl]-2-(difluoromethoxy)-N-[(1-fluorocyclopropyl)methyl]-6-methoxybenzamide]
13.6 nM | 11 nM | 12.5 nM | COc1cc(-c2c3c(C#N)cc(-c4cnn(CC5(O)CCC5)c4)cc3nn2C)cc(OC(F)F)c1C(=O)NCC1(F)CC1 [Example 84, 4-[4-cyano-6-[1-[(1-hydroxycyclobutyl)methyl]pyrazol-4-yl]-2-methylindazol-3-yl]-2-(difluoromethoxy)-N-[(1-fluorocyclopropyl)methyl]-6-methoxybenzamide]
18.5 nM | 14.6 nM | 4.3 nM | COc1cc(-c2c3c(C(F)F)cc(-c4cnn(C)c4)cc3nn2C)cc(OC(F)F)c1C(N)=O [Example 87, 2-(difluoromethoxy)-4-[4-(difluoromethyl)-2-methyl-6-(1-methylpyrazol-4-yl)indazol-3-yl]-6-methoxybenzamide]
11 nM | 12 nM | 2.3 nM | COc1cc(-c2c3c(C(F)F)cc(-c4cnn(C[C@H](C)O)c4)cc3nn2C)cc(OC(F)F)c1C(=O)N[C@@H]1CC1(F)F [Example 89, N-[(1R)-2,2-difluorocyclopropyl]-2-(difluoromethoxy)-4-[4-(difluoromethyl)-6-[1-[(2S)-2-hydroxypropyl]pyrazol-4-yl]-2-methylindazol-3-yl]-6-methoxybenzamide]
17.8 nM | 10.4 nM | 7.9 nM | COc1cc(-c2c3c(C#N)cc(-c4cnn(CCC(C)(C)O)c4)cc3nn2C)cc(OC(F)F)c1C(=O)NCC1(F)CC1 [Example 90]
17.5 nM | 10.1 nM | 7.3 nM | COc1cc(-c2c3c(C#N)cc(-c4cnn(C[C@H]5C[C@@H](O)C5)c4)cc3nn2C)cc(OC(F)F)c1C(=O)NCC1(F)CC1 [Example 91, 4-[4-cyano-6-[1-[(cis-3-hydroxycyclobutyl)methyl]pyrazol-4-yl]-2-methylindazol-3-yl]-2-(difluoromethoxy)-N-[(1-fluorocyclopropyl)methyl]-6-methoxybenzamide]
17 nM | 10.9 nM | 10.2 nM | COc1cc(-c2c3c(C#N)cc(-c4cnn(CC[C@@H](C)O)c4)cc3nn2C)cc(OC(F)F)c1C(=O)NCC1(F)CC1 [Example 92, 4-[4-cyano-6-[1-[(3R)-3-hydroxybutyl]pyrazol-4-yl]-2-methylindazol-3-yl]-2-(difluoromethoxy)-N-[(1-fluorocyclopropyl)methyl]-6-methoxybenzamide]
19.8 nM | 13.5 nM | 5.9 nM | CC[C@H](O)Cn1cc(-c2cc(C#N)c3c(-c4cc(OC)c(C(=O)NCC5(F)CC5)c(OC(F)F)c4)n(C)nc3c2)cn1 [Example 93, 4-[4-cyano-6-[1-[(2S)-2-hydroxybutyl]pyrazol-4-yl]-2-methylindazol-3-yl]-2-(difluoromethoxy)-N-[(1-fluorocyclopropyl)methyl]-6-methoxybenzamide]
6.7 nM | 5 nM | 2.3 nM | COc1cc(-c2c3c(C#N)cc(-c4cnn(C[C@H](C)O)c4)cc3nn2C)cc(OC(F)F)c1C(=O)N[C@@H]1CC1(F)F [Example 94, 4-[4-cyano-6-[1-[(2S)-2-hydroxypropyl]pyrazol-4-yl]-2-methylindazol-3-yl]-N-[(1R)-2,2-difluorocyclopropyl]-2-(difluoromethoxy)-6-methoxybenzamide]
14 nM | 3.9 nM | 5 nM | CCCn1cc(-c2cc(C#N)c3c(-c4cc(OC)c(C(N)=O)c(OC(F)F)c4)n(C)nc3c2)cn1 [Example 96, 4-[4-cyano-2-methyl-6-(1-propylpyrazol-4-yl)indazol-3-yl]-2-(difluoromethoxy)-6-methoxybenzamide]
15.3 nM | 7.4 nM | 6.1 nM | COc1cc(-c2c3c(C#N)cc(-c4cnn(C[C@@H](O)c5ccccc5)c4)cc3nn2C)cc(OC(F)F)c1C(=O)NCC1(F)CC1 [Example 97, 4-[4-cyano-6-[1-[(2S)-2-hydroxy-2-phenylethyl]pyrazol-4-yl]-2-methylindazol-3-yl]-2-(difluoromethoxy)-N-[(1-fluorocyclopropyl)methyl]-6-methoxybenzamide]
17.9 nM | 10.5 nM | 10.3 nM | COc1cc(-c2c3c(C#N)cc(-c4cnn(CC(=O)N(C)C)c4)cc3nn2C)cc(OC(F)F)c1C(=O)NCC1(F)CC1 [Example 98, 4-[4-cyano-6-[1-[2-(dimethylamino)-2-oxoethyl]pyrazol-4-yl]-2-methylindazol-3-yl]-2-(difluoromethoxy)-N-[(1-fluorocyclopropyl)methyl]-6-methoxybenzamide]
19.2 nM | 5 nM | 4.9 nM | COc1cc(-c2c3c(C#N)cc(-c4cnn(CC(=O)N5CC(F)(F)C5)c4)cc3nn2C)cc(OC(F)F)c1C(=O)NCC1(F)CC1 [Example 99, 4-[4-cyano-6-[1-[2-(3,3-difluoroazetidin-1-yl)-2-oxoethyl]pyrazol-4-yl]-2-methylindazol-3-yl]-2-(difluoromethoxy)-N-[(1-fluorocyclopropyl)methyl]-6-methoxybenzamide]
15.5 nM | 7.3 nM | 5.7 nM | COc1cc(-c2c3c(C#N)cc(-c4cnn(CC(=O)N5CCCC5)c4)cc3nn2C)cc(OC(F)F)c1C(=O)NCC1(F)CC1 [Example 100]
15 nM | 5.8 nM | 12 nM | COc1cc(-c2c3c(C#N)cc(-c4cnn(CC(=O)N5CCC(F)(F)C5)c4)cc3nn2C)cc(OC(F)F)c1C(=O)NCC1(F)CC1 [Example 101, 4-[4-cyano-6-[1-[2-(3,3-difluoropyrrolidin-1-yl)-2-oxoethyl]pyrazol-4-yl]-2-methylindazol-3-yl]-2-(difluoromethoxy)-N-[(1-fluorocyclopropyl)methyl]-6-methoxybenzamide]
19.2 nM | 5.3 nM | 5.1 nM | COc1cc(-c2c3c(C#N)cc(-c4cnn(CC(F)F)c4)cc3nn2C)cc(OC(F)F)c1C(N)=O [Example 102, 4-[4-cyano-6-[1-(2,2-difluoroethyl)pyrazol-4-yl]-2-methylindazol-3-yl]-2-(difluoromethoxy)-6-methoxybenzamide]
4.4 nM | 1.6 nM | 4.8 nM | COc1cc(-c2c3c(OCc4cncc(F)c4)cc(-c4cnn(C)c4)cc3nn2C)cc(OC(F)F)c1C(=O)N1CC(O)(C(F)(F)F)C1 [Example 103, [2-(difluoromethoxy)-4-[4-[(5-fluoropyridin-3-yl)methoxy]-2-methyl-6-(1-methylpyrazol-4-yl)indazol-3-yl]-6-methoxyphenyl]-[3-hydroxy-3-(trifluoromethyl)azetidin-1-yl]methanone]
6.4 nM | 1.8 nM | 4.8 nM | COc1cc(-c2c3c(OCc4cncc(C#N)c4)cc(-c4cnn(C)c4)cc3nn2C)cc(OC(F)F)c1C(=O)N1CC(O)(C(F)(F)F)C1 [Example 104, 5-[[3-[3-(difluoromethoxy)-4-[3-hydroxy-3-(trifluoromethyl)azetidin-1-carbonyl]-5-methoxyphenyl]-2-methyl-6-(1-methylpyrazol-4-yl)indazol-4-yl]oxymethyl]pyridine-3-carbonitrile]
18 nM | 18.1 nM | 2.3 nM | COc1cc(-c2c3c(C(F)F)cc(-c4cnn(CC(C)(C)O)c4)cc3nn2C)cc(OC(F)F)c1C(=O)N[C@@H]1CC1(F)F [Example 109]
6.5 nM | 3.2 nM | 1.7 nM | COc1cc(-c2c3c(C#N)cc(-c4cnn(CC5(O)CCC5)c4)cc3nn2C)cc(OC(F)F)c1C(=O)N[C@@H]1CC1(F)F [Example 110, 4-[4-cyano-6-[1-[(1-hydroxycyclobutyl)methyl]pyrazol-4-yl]-2-methylindazol-3-yl]-N-[(1R)-2,2-difluorocyclopropyl]-2-(difluoromethoxy)-6-methoxybenzamide]
